Measured values published in patent US9540389B2, “Antimicrobial potentiators” (priority 2013, dated 2017).

Assays:
[1] = system: Escherichia coli AB1157 ΔemrB; assay: Checkerboard MIC assay (antibacterial agent + MBX2319); assay type: cell-based; details: EmrB-defective mutant; data not shown
Text: (§1) • Strains and Reagents. The following strains were obtained from the Keio collection (Baba, et al.: Construction of Escherichia coli K-12 in-frame, single-gene knockout mutants: the Keio collection. In Mol Syst Biol, vol. 2, pp. 2006 0008, (2006)): JW0451 (ΔacrB::kan), JW5503 (ΔtolC::kan), JW3234 (ΔacrF::kan), JW2661 (ΔemrB::kan), JW0863 (ΔmacB::kan). The deletion mutations in each of these strains were transferred to AB1157 using P1 phage transduction (see Table 1). The construction of the E. coli cell-based reporter strain (SOS-XXX) that was used for high throughput screening is described in detail in the supplementary information. […] Irgasan was a generous gift from Ciba Speciality Chemicals, Inc. (High Point, N.C.). Hoechst 33342 (H33342) was purchased from Molecular Probes (Eugene, Oreg.). […] Luria Broth (Miller) and agar were purchased as prepared dehydrated media from Becton Dickenson (Franklin Lakes, N.J.). The compound libraries used in high-throughput screens were purchased from Chembridge (San Diego, Calif.), ChemDiv (San Diego, Calif.), and TimTec (Newark, Del.). MBX2319 was synthesized by Microbiotix, Inc. • Antibacterial Activity Assays. The minimal inhibitory concentration (MIC) of antibacterial agents and biocides were determined using the microbroth dilution method essentially as described in the CLSI protocol M7-A7 (CLSI: Method for dilution antimicrobial susceptibility testing for bacteria that grow aerobically; Approved standard-document M7-A7. In Clinical and Laboratory Standards Institute document M7-A7, Clinical and Laboratory Standards Institute, Wayne, Pa., (2006)), with the following exceptions. LB media was used instead of MHB. […] The final concentration of DMSO in each assay was 2%. […] MIC assays were performed in triplicate and the geometric mean was calculated. Checkerboard MIC assays using an EPI and an antibacterial agent were performed essentially as described (Pillai, et al.: Antimicrobial Combinations. In Antibiotics in Laboratory Medicine, ed. by V. Lorian, pp. 365-440, Lippincott Williams & Wilkins, Philadelphia, Pa., (2005)), with the same modifications used for the MIC assays described above. • Time-Kill Assays. Killing curve assays were performed essentially as described (Pillai, et al.: Antimicrobial Combinations. In Antibiotics in Laboratory Medicine, ed. by V. Lorian, pp. 365-440, Lippincott Williams & Wilkins, Philadelphia, Pa., (2005)). Exponential bacterial cultures grown in LB were diluted to a cell density of ˜1×10^7 in LB followed by addition of CIP and/or an EPI. Viability was monitored over 2-4 hours by making serial dilutions in saline and spotting 5 μl of each dilution onto the surface of an LB agar plate in triplicate. Colonies were counted after the plates were incubated at 37° C. for 16-18 hr, colony forming units (CFU) per ml were calculated, and the average and standard deviation for the three replicates was determined. For treatments that decreased CFU/ml below the limit of detection for the spot plating method, the 100 μl samples were diluted into 5 ml LB top agar, were poured onto LB agar plates, and incubated for 18 hr at 37° C. To calculate the fraction of the control for each sample, the average CFU/ml values for treated samples were divided by those from the same sample at 0 h (time=0). Each experiment was repeated at least three times, and a representative experiment is shown. • H33342 Accumulation Assay. The rate of accumulation of the fluorescent dye Hoechst 33342 (H33342), which is a substrate of a wide variety of bacterial efflux pumps (van den Berg van Saparoea, et al., Biochemistry, vol. 44, pp. 16931-16938, (2005)), can be used to estimate the activity of the major efflux pumps in E. coli and many other bacterial species. The H33342 accumulation assay was used to evaluate the effect of EPIs on the activity of the AcrAB-TolC efflux pump in several bacterial species essentially as described (Coldham, et al., J Antimicrob Chemother, vol. 65, pp. 1655-1663, (2010)). […]

[2] = system: Escherichia coli AB1157 ΔmacB; assay: as above; assay type: cell-based; details: MacB-defective mutant; data not shown
Text: as §1

[3] = system: diverse panel of E. coli strains; assay: Cumulative MICs (MIC50, MIC90) for levofloxacin and piperacillin ± 25 μM MBX2319; assay type: cell-based, Escherichia coli; details: E. coli strain panel
Text: as §1, with “Exponential bacterial cultures grown in LB were diluted to a cell density of ˜1×10^7 in LB followed by addition of CIP and/or an EPI.” left out, “determined.” for “determined. For treatments that decreased CFU/ml below the limit of detection for the spot plating method, the 100 μl samples were diluted into 5 ml LB top agar, were poured onto LB agar plates, and incubated for 18 hr at 37° C. To calculate the fraction of the control for each sample, the average CFU/ml values for treated samples were divided by those from the same sample at 0 h (time=0). Each experiment was repeated at least three times, and a representative experiment is shown. • H33342 Accumulation Assay. The rate of accumulation of the fluorescent dye Hoechst 33342 (H33342), which is a substrate of a wide variety of bacterial efflux pumps (van den Berg van Saparoea, et al., Biochemistry, vol. 44, pp. 16931-16938, (2005)), can be used to estimate the activity of the major efflux pumps in E. coli and many other bacterial species. The H33342 accumulation assay was used to evaluate the effect of EPIs on the activity of the AcrAB-TolC efflux pump in several bacterial species essentially as described (Coldham, et al., J Antimicrob Chemother, vol. 65, pp. 1655-1663, (2010)).”

AcrAB-TolC efflux pump [4] = molecular target: T1, AcrAB-TolC efflux pump (Escherichia coli, UniProt P31224); assay: H33342 accumulation assay; assay type: cell-based; design: endogenous in cells; host or cells: E. coli 331 (fluoroquinolone-resistant); details: E. coli 331 (CIPR); 25 μM
Target sequence in this assay (P31224 whole entry): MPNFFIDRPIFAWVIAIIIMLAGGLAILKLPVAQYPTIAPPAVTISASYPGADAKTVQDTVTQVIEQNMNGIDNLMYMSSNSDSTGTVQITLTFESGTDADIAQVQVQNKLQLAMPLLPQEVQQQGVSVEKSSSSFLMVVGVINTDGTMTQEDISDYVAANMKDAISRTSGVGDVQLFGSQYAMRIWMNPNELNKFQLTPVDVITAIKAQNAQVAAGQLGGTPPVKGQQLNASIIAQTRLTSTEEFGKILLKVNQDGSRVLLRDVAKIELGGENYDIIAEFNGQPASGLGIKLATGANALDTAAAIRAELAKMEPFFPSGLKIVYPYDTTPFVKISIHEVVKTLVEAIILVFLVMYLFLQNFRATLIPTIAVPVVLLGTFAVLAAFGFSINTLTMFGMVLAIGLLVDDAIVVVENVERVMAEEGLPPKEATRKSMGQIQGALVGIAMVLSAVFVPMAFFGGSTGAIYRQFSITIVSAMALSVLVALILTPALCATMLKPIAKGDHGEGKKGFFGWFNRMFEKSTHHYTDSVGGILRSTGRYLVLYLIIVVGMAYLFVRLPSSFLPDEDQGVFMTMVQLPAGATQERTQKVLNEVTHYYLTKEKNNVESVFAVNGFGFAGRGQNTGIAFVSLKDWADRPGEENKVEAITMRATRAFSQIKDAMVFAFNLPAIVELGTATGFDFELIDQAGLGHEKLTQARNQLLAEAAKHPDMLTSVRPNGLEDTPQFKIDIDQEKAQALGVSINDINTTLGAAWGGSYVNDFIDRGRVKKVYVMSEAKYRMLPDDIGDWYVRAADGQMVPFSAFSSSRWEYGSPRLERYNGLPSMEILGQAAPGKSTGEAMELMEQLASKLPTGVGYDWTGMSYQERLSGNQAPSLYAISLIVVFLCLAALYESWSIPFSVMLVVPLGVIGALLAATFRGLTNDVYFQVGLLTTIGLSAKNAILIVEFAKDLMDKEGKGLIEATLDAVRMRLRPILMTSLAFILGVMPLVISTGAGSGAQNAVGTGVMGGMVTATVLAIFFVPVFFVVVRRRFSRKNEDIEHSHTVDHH
Target sequence in this assay (P0AE06 25-397, further chain): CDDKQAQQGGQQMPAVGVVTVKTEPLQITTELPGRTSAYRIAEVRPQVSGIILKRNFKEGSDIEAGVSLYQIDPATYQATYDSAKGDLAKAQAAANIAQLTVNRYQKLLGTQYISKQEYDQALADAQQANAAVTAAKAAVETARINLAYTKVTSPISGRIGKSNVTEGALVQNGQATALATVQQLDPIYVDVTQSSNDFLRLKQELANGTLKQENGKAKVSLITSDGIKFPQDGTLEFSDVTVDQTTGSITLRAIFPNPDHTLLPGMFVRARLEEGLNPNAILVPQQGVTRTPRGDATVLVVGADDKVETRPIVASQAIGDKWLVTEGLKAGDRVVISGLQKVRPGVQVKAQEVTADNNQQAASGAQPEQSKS
Target sequence in this assay (P02930 23-493, further chain): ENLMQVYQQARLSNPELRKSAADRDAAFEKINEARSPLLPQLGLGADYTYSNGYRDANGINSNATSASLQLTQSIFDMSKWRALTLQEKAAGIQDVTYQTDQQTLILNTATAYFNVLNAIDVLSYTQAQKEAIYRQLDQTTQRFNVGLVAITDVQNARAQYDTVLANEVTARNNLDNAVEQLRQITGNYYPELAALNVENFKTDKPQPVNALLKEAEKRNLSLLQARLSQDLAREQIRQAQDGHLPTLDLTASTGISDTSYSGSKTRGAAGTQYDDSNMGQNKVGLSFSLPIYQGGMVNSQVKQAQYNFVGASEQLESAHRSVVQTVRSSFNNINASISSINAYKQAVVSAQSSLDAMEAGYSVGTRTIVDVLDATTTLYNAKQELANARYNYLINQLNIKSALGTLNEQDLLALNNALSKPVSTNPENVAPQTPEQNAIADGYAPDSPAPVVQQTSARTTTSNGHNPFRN

AcrAB-TolC efflux pump [5] = molecular target: T1, AcrAB-TolC efflux pump; assay: H33342 accumulation assay; assay type: cell-based, Escherichia coli 287; design: endogenous in cells; host or cells: E. coli strains 285 and 287 (ciprofloxacin-resistant mutants of AB1157); details: hyper-efflux strain 287
Target sequence in this assay (P02930 23-493): as the sequence (P02930 23-493, further chain) above
Target sequence in this assay (P0AE06 25-397, further chain): as the sequence (P0AE06 25-397, further chain) above
Target sequence in this assay (P31224 whole entry): as the sequence (P31224 whole entry) above

[6] = system: Enterobacter aerogenes ATCC 13048; assay: MIC assay (microbroth dilution) ± 25 μM EPI; assay type: cell-based
How it was run: (§2)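 Knockout alleles from Keio strains were moved into AB1157 by P1 transduction. MICs were determined by CLSI M7-A7 microbroth dilution, with LB replacing MHB and 2% final DMSO. Checkerboard combinations used the same modifications, and values are geometric means of triplicates.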

[7] = system: Klebsiella pneumoniae ATCC 700603; assay: MIC assay (microbroth dilution) ± 25 μM EPI; assay type: cell-based
How it was run: as §2

[8] = system: Salmonella enterica ATCC 14028; assay: MIC assay (microbroth dilution) ± 25 μM EPI; assay type: cell-based
How it was run: as §2

[9] = system: Shigella flexneri ATCC 12022; assay: MIC assay (microbroth dilution) ± 25 μM EPI; assay type: cell-based
How it was run: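 MICs were determined by CLSI M7-A7 microbroth dilution in LB instead of MHB, with 2% final DMSO, in triplicate, reported as geometric mean. Checkerboard assays combined MBX2319 with antibacterial agent under the same conditions; the Shigella assay used 25 μM EPI. E. coli AB1157 carried P1-transduced Keio deletions.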

[10] = system: Escherichia coli AB1157 ΔacrB; assay: MIC assay (microbroth dilution); assay type: cell-based
Text: as §1

[11] = MIC no cmpd/MIC + 25 μM MBX2319

## CC1(C)Cc2c(C#N)c(SCCc3ccccc3)nc(N3CCOCC3)c2CO1 [MBX2319]
[1]
  MIC shifts by MBX2319: MIC shifts similar to WT
[2]
  MIC shifts by MBX2319: MIC shifts similar to WT
[3]
  decrease of MIC50 for LEV: four fold
  decrease of MIC90 for LEV: four fold
  effect on MIC50 for PIP: did not have a significant effect
  effect on MIC90 for PIP: did not have a significant effect
AcrAB-TolC efflux pump [4]
  H33342 accumulation: weak activity
AcrAB-TolC efflux pump [5]
  H33342 accumulation: increased H33342 accumulation

## CCN1CCN(C(=O)N[C@@H](C(=O)N[C@@H]2C(=O)N3[C@@H]2SC(C)(C)[C@@H]3C(=O)O)c2ccccc2)C(=O)C1=O [Piperacillin, piperacillin]
[6]; + 25 μM MBX2319
  MIC (μg/ml) ± EPI: MBX2319: 1.4 µg/mL
[6]; + 25 μM PAβN
  MIC (μg/ml) ± EPI: PAβN: 16 µg/mL
[6]; Klebsiella aerogenes, ATCC13048, no EPI, read-out: MIC (μg/ml) ± EPI: None
  MIC: 4 µg/mL
[6]; [11]
  MIC Ratio MBX2319: 2.8
[6]; MIC no cmpd/MIC + 25 μM PAβN
  MIC Ratio PAβN: 0.2
[7]; + 25 μM MBX2319
  MIC (μg/ml) ± EPI: MBX2319: 113 µg/mL
[7]; + 25 μM PAβN
  MIC (μg/ml) ± EPI: PAβN: 113 µg/mL
[7]; ATCC700603, no EPI, read-out: MIC (μg/ml) ± EPI: None
  MIC: 113 µg/mL
[7]; [11]
  MIC Ratio MBX2319: 1
[7]; MIC no cmpd/MIC + 25 μM PAβN
  MIC Ratio PAβN: 1
[8]; + 25 μM MBX2319
  MIC (μg/ml) ± EPI: MBX2319: 0.5 µg/mL
[8]; + 25 μM PAβN
  MIC (μg/ml) ± EPI: PAβN: 4 µg/mL
[8]; ATCC14028, no EPI, read-out: MIC (μg/ml) ± EPI: None
  MIC: 2.4 µg/mL
[8]; [11]
  MIC Ratio MBX2319: 4.8
[8]; MIC no cmpd/MIC + 25 μM PAβN
  MIC Ratio PAβN: 0.6
[9]; Shigella flexneri ATCC 12022, + 25 μM MBX2319
  MIC (μg/ml) ± EPI: MBX2319: 0.25 µg/mL
[9]; Shigella flexneri ATCC 12022, + 25 μM PAβN
  MIC (μg/ml) ± EPI: PAβN: 1 µg/mL
[9]; Shigella flexneri ATCC 12022, MIC no cmpd/MIC + 25 μM MBX2319
  MIC Ratio MBX2319: 4
[9]; Shigella flexneri ATCC 12022, MIC no cmpd/MIC + 25 μM PAβN
  MIC Ratio PAβN: 1
[9]; Shigella flexneri, ATCC12022, read-out: MIC (μg/ml) ± EPI: None
  MIC: 1 µg/mL
[10]; Escherichia coli, read-out: MICs (μg/ml) ΔacrB None
  MIC: 0.25 µg/mL
[10]; MIC WT/MIC ΔacrB
  MIC Ratio ΔacrB: 16
